According to US11426397B2, “Piperidinyl- and piperazinyl-substituted heteroaromatic carboxamides as modulators of GPR6” (TAKEDA PHARMACEUTICAL COMPANY LIMITED, priority 2017, dated 2022):

Key:
[1] = test system: haloperidol-induced catalepsy; assay: In vivo Parkinson's disease model, haloperidol-induced catalepsy; parameters: species or system mice; settings: mouse catalepsy model, PO
Description: II. In Vivo Parkinson's Disease Model Haloperidol-Induced Catalepsy The motor symptoms of Parkinson's disease include akinesia, bradykinesia, rigidity, tremor and postural abnormalities and are associated with the loss of nigral dopaminergic cells and a decline in striatal dopamine levels. Administration of haloperidol to rodents leads to a transient Parkinsonian-like state that is reversed by the administration of levodopa and other drugs that have been clinically validated for the treatment of Parkinson's disease. See Duty, S. & Jenner, P. Br. J. Pharmacol. 164:1357-1391 (2011). Haloperidol antagonizes dopamine D2, and to a lesser extent, D1 receptors in medium spiny neurons that comprise the indirect and direct pathways of the motor circuit, respectively. The resultant block of striatal dopamine transmission results in abnormal downstream firing within the basal ganglia circuits that is manifest as symptoms of muscle rigidity and catalepsy. Catalepsy has been postulated to reflect the clinical features of Parkinson's disease, whereby patients experience an inability to initiate movements. Male C57B16 mice weighing 25-35 g are used. Catalepsy is induced by the subcutaneous (sc) administration of the dopamine receptor antagonist haloperidol (0.45 mg/kg) at least 30 minutes before testing the animals on a vertical grid test. For this test, the rats or mice are placed on a wire mesh cover of a 25 cm×43 cm plexiglass cage placed at an angle of about 70 degrees with the bench table. The subject is placed on the grid with all four legs abducted and extended (“frog posture”). The use of such an unnatural posture is essential for the specificity of this test for catalepsy. The time span from placement of the paws until the first complete removal of one paw (descent latency) is measured maximally for 120 seconds for rats. For mice, the front paws of the mouse is placed on a horizontal metal bar raised 2″ above a Plexiglas platform and time is recorded for up to 30 seconds per trial. The test ends when the animal's front paws return to the platform or after 30 seconds. The test is repeated three times and the average of the three trials is reported as the intensity index of catalepsy. Animals evaluated at 30 minutes after dosing are reevaluated at 60 or 90 minutes post dosing of haloperidol. Efficacy of GPR6 modulators to reverse haloperidol induced catalepsy is measured 30 minutes, 60 minutes, and/or 90 minutes after dosing the subjects with 0.45 mg/kg ip (intraperitoneal injection) of haloperidol along with the GPR6 modulator test compound. A representative number of compounds of Formula 1 are administered in a dose range from 0.1 to 100 mg/kg (po in 0.5% methyl cellulose) in conjunction with haloperidol. […]

[2] = target: T1, GPR6 receptor expressed in CHO-K1 cells (Homo sapiens, UniProt P46095); assay: In vitro inhibition of cAMP (EC50), cell-based HTRF cAMP assay; settings: inhibition of constitutive cAMP activity of GPR6 in CHO-K1 cells
T1 construct: expressed in transfected cells
Outline: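 Tetracycline-inducible CHO-K1 line, GPR6 expression induced 20 h with 2 μg/mL doxycycline. Compounds incubated 45 min at 37 °C in Ringer's buffer (pH 7.4) with 0.5% fatty acid free BSA and 300 μM IBMX. Constitutive cAMP read by Lance HTRF; EC50 from four-parameter logistic fit.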

T1 sequence (P46095 whole entry): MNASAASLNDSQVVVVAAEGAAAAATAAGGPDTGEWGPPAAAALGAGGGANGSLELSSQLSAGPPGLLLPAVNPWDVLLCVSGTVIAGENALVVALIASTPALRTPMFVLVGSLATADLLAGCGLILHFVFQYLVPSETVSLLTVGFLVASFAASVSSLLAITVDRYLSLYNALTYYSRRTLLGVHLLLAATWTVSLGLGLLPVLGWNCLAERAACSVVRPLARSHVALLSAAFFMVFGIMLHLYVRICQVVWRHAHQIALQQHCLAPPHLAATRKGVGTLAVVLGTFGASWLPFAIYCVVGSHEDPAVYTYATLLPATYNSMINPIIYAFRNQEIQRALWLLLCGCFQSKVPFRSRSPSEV

Row | pEC50, in vitro inhibition of cAMP [2] | melting point | SMILES | % reversal ([1]; dose 1 mpk, time 60 minutes) | % reversal ([1]; dose 3 mpk, time 60 minutes) | % reversal ([1]; dose 1 mpk, time 30 minutes) | % reversal ([1]; dose 1 mpk, time 90 minutes)
1 | 7.1 |  | COc1ncccc1C(=O)Nc1cnc(C(=O)N(C)C)cc1N1CCC(Oc2ccc(F)cc2F)CC1 [Example 31, 4-(4-(2,4-difluorophenoxy)piperidin-1-yl)-5-(2-methoxynicotinamido)-N,N-dimethylpicolinamide] | 47% |  |  | 
2 | 6.9 | 138 °C | COc1cc(N2CCC(Oc3ccc(F)cc3F)CC2)c(NC(=O)c2cccnc2OC)cn1 [Example 20, N-(4-(4-(2,4-difluorophenoxy)piperidin-1-yl)-6-methoxypyridin-3-yl)-2-methoxynicotinamide] |  |  |  | 
3 | 6.8 |  | COc1nc(C)ccc1C(=O)Nc1cnc(C(=O)N(C)C)cc1N1CCC(Oc2ccc(F)cc2F)CC1 [Example 283, 4-(4-(2,4-difluorophenoxy)piperidin-1-yl)-5-(2-methoxy-6-methylnicotinamido)-N,N-dimethylpicolinamide] |  | 47% |  | 
4 | 7.4 | 173 °C | COc1ccncc1C(=O)Nc1cc(S(C)(=O)=O)ccc1N1CCC(Oc2ccc(F)cc2F)CC1 [Example 7, N-(2-(4-(2,4-difluorophenoxy)piperidin-1-yl)-5-(methylsulfonyl)phenyl)-4-methoxynicotinamide] |  |  |  | 
5 | 7.3 | 201 °C | COc1ccccc1C(=O)Nc1cc(S(C)(=O)=O)ccc1N1CCC(Oc2ccc(F)cc2F)CC1 [Example 6, N-(2-(4-(2,4-difluorophenoxy)piperidin-1-yl)-5-(methylsulfonyl)phenyl)-2-methoxybenzamide] |  |  |  | 
6 | 6.8 |  | COc1ncccc1C(=O)Nc1cnc(C)nc1N1CCC(Oc2ccc(F)cc2F)CC1 [Example 18, N-(4-(4-(2,4-difluorophenoxy)piperidin-1-yl)-2-methylpyrimidin-5-yl)-2-methoxynicotinamide] |  |  | 53% | 37%
